Test results: patent US20130037709A1, “Method for Clinically Monitoring Niacin and Niacin Metabolites in Serum or Plasma” (priority 2010, published 2013)

Assays:
Stability in plasma = test: Stability in plasma
Protocol: (§1) Nicotinic acid, nicotinamide and nicotinuric acid are stable in plasma when frozen (at −20±5° C.) for 64 days and after 3 freeze/thaw cycles. When kept at room temperature, nicotinic acid in plasma becomes unstable after 24 hours.

[1] = Long term storage in tubes (glass vs polypropylene); type: in vitro ADME
Source text: Most preferred are Vacutainer tubes containing lithium-heparin as an anticoagulant.

[2] = Protocol: as §1
Remark: listed apart in the source
[3] = system: NAD and NADP in whole blood; details: individuals undergoing niacin therapy; average pretherapy value 175; cited from earlier work

time stable in plasma when frozen (Stability in plasma; 64 days)	stability in plasma after freeze/thaw cycles (Stability in plasma; plasma)	change in concentration on long term storage in polypropylene tubes [1]	time after which unstable in plasma at room temperature (Stability in plasma; 24 hours)	time stable in serum when refrigerated (refrigerated)	time stable in serum at room temperature (room temperature)	SMILES	stability in fresh whole blood [2]	average niacin number after niacin supplements [3]	stability in plasma after freeze/thaw cycles (Stability in plasma; plasma, after 3 freeze/thaw cycles)	time stable in plasma when frozen (Stability in plasma; plasma, frozen at −20±5° C.)
64 days	stable	significant changes in the concentration	–	–	–	NC(=O)c1cccnc1 [nicotinamide]	–	–	–	–
64 days	stable	–	24 h	15 days	15 days	O=C(O)c1cccnc1 [nicotinic acid, pyridine 3-carboxylic acid]	neither nicotinic acid nor the active metabolites were stable	665	–	–
–	–	–	–	–	–	O=C(O)CNC(=O)c1cccnc1 [nicotinuric acid]	–	–	stable	64 days
